ChEMBL document CHEMBL4138236, “Trisubstituted barbiturates and thiobarbiturates: Synthesis and biological evaluation as xanthine oxidase inhibitors, antioxidants, antibacterial and anti-proliferative agents” (Eur J Med Chem, 2018)
Converted amounts (≈) assume the structure as drawn.

Assays:
[1] = Antioxidant activity assessed as DPPH radical scavenging activity at 30 uM after 20 mins by spectrophotometric method relative to control; assay type: functional
[2] = Antioxidant activity assessed as DPPH radical scavenging activity at 30 uM after 60 mins by spectrophotometric method relative to control; assay type: functional
[3] = test system: MCF7; assay: Antiproliferative activity against human MCF7 cells at 30 uM after 72 hrs by MTT assay relative to control; assay type: functional
[4] = test system: NHDF; assay: Antiproliferative activity against NHDF at 30 uM after 72 hrs by MTT assay relative to control; assay type: cell-based; conditions: human
[5] = test system: Bacillus cereus; assay: Antibacterial activity against Bacillus cereus ATCC 1178 after 24 hrs by broth microdilution method; assay type: functional; conditions: ATCC 1178, 24 h
[6] = test system: Staphylococcus aureus; assay: Antibacterial activity against Staphylococcus aureus ATCC 25923 after 24 hrs by broth microdilution method; assay type: functional; conditions: ATCC 25923, 24 h
[7] = test system: Escherichia coli; assay: Antibacterial activity against Escherichia coli ATCC 25922 after 24 hrs by broth microdilution method; assay type: functional; conditions: ATCC 25922, 24 h
[8] = test system: Klebsiella pneumoniae; assay: Antibacterial activity against Klebsiella pneumoniae ATCC 13883 after 24 hrs by broth microdilution method; assay type: functional; conditions: ATCC 13883, 24 h
[9] = test system: Pseudomonas aeruginosa; assay: Antibacterial activity against Pseudomonas aeruginosa ATCC 27853 after 24 hrs by broth microdilution method; assay type: functional; conditions: ATCC 27853, 24 h
[10] = test system: Salmonella typhimurium; assay: Antibacterial activity against Salmonella typhimurium ATCC 13311 after 24 hrs by broth microdilution method; assay type: functional, Salmonella enterica subsp. enterica serovar Typhimurium; conditions: Salmonella enterica, ATCC 13311, 24 h
[11] = test system: Acinetobacter baumannii; assay: Antibacterial activity against Acinetobacter baumannii LMG 1025 after 24 hrs by broth microdilution method; assay type: functional; conditions: LMG 1025, 24 h
[12] = test system: MCF7; assay: cells; conditions: Homo sapiens, MCF7, 72 h
[13] = Antioxidant activity assessed as DPPH radical scavenging activity after 20 mins by spectrophotometric method; assay type: functional
[14] = Antioxidant activity assessed as DPPH radical scavenging activity after 60 mins by spectrophotometric method; assay type: functional
[15] = test system: NHDF; assay: Antiproliferative activity against NHDF after 72 hrs by MTT assay; assay type: cell-based; conditions: Homo sapiens

| Structure (SMILES) | Activity [1] [%] | Activity [2] [%] | Activity [3] [%] | Activity [4] [%] | MIC [5] [µM] | MIC [6] [µM] | MIC [7] [µM] | MIC [8] [µM] | MIC [9] [µM] | MIC [10] [µM] | MIC [11] [µM] | IC50 [12] [µM] | IC50 [13] [µM] | IC50 [14] [µM] | IC50 [15] [µM] |
| --- | --- | --- | --- | --- | --- | --- | --- | --- | --- | --- | --- | --- | --- | --- | --- |
| O=C1NC(=S)NC(=O)C1=CNc1ccc([N+](=O)[O-])cc1Cl | 0.91 | 0.5 | 32.43 | 76.01 | > 200 | > 200 | > 200 | > 200 | > 200 | > 200 | > 200 | 13.2 |  |  |  |
| CC(NNc1ccccc1)=C1C(=O)NC(=O)NC1=O | 77.1 | 78.1 | 40.24 | 74.87 | > 200 | > 200 | > 200 | > 200 | > 200 | > 200 | 25 (≈ 6.51 µg/mL) |  | 23.9 | 20.4 |  |
| O=C1NC(=S)NC(=O)C1=CNc1ccccc1[N+](=O)[O-] | -12.5 | -11.8 | 80.23 | 78.75 | > 200 | > 200 | > 200 | > 200 | > 200 | > 200 | > 200 |  |  |  |  |
| O=C1C(=Cc2ccccc2[N+](=O)[O-])C(=O)N(c2ccccc2)C(=S)N1c1ccccc1 | 9 | 11.3 | 67.93 | 77.56 | > 200 | > 200 | > 200 | > 200 | > 200 | > 200 | > 200 |  |  |  |  |
| CC(=O)C1C(=O)N(C)C(=O)N(C)C1=O | -9.14 | -9.91 | 84.11 | 94.14 | > 200 | > 200 | > 200 | > 200 | > 200 | > 200 | > 200 |  |  |  |  |
| COc1ccc(CC2C(=O)NC(=O)NC2=O)cc1 | 10.4 | 14 | 73.12 | 60.77 | > 200 | > 200 | > 200 | > 200 | > 200 | > 200 | > 200 |  |  |  |  |
| CC(NNc1ccc([N+](=O)[O-])cc1[N+](=O)[O-])=C1C(=O)NC(=O)NC1=O | 17.6 | 18.1 | 50.01 | 79.47 | > 200 | > 200 | > 200 | > 200 | > 200 | > 200 | > 200 |  |  |  |  |
| CN1C(=O)C(=CNC(N)=S)C(=O)N(C)C1=O | 20.3 | 31.9 | 59.18 | 84.63 | > 200 | > 200 | > 200 | > 200 | > 200 | > 200 | > 200 |  |  |  |  |
| O=C(O)c1ccccc1NC=C1C(=O)N(c2ccccc2)C(=S)N(c2ccccc2)C1=O | -2.45 | -2.27 | 43.11 | 82.24 | > 200 | > 200 | > 200 | > 200 | > 200 | > 200 | > 200 |  |  |  |  |
| O=c1[nH]cc(F)c(=O)[nH]1 [FLUOROURACIL] |  |  | 11.88 | 58.31 |  |  |  |  |  |  |  | 2.35 |  |  | 7.38 |
| O=C1NC(=S)NC(=O)C1=CNc1ccccc1Cl | 1.12 | 0.92 | 47.17 | 65.67 | > 200 | > 200 | > 200 | > 200 | > 200 | > 200 | > 200 |  |  |  |  |
| CN1C(=O)C(=CNC(N)=O)C(=O)N(C)C1=O | 2.1 | 2.91 | 97.13 | 86.84 | > 200 | > 200 | > 200 | > 200 | > 200 | > 200 | > 200 |  |  |  |  |
| CC(=O)C1C(=O)NC(=O)NC1=O | -6.91 | -7.28 | 80.64 | 124.84 | > 200 | > 200 | > 200 | > 200 | > 200 | > 200 | > 200 |  |  |  |  |
